Test results taken from publication PMC6572573, “Development of a Ternary Solid Dispersion Formulation of LW6 to Improve the In Vivo Activity as a BCRP Inhibitor: Preparation and In Vitro/In Vivo Characterization” (Pharmaceutics, 2019).

How the values were obtained:
[1] = system: breast cancer resistance protein (BCRP); parameters: method as in PMID 27520631; settings: previous reports ref 4; cited from earlier work
[2] = Apparent aqueous solubility of LW6 formulations (HPLC); type: physicochemical; settings: water
Experimental: For the selection of optimal carriers, SDs of LW6 were prepared with various hydrophilic polymers at a drug–carrier ratio of 1:5 using the solvent evaporation method. Briefly, LW6 was dissolved in dichloromethane by sonication for 10 min for complete solubilization. Each polymeric carrier was dissolved in dichloromethane and added to the drug solution. After vigorous mixing, all the solvents were eliminated under vacuum at room temperature. The resulting product was milled and sieved through an 80-mesh screen. The corresponding physical mixtures (PMs) were also prepared by mixing LW6 and each carrier with a mortar and pestle. The carrier that enhanced the LW6 solubility to the greatest extent was selected for preparing the ternary SD formulations of LW6. The effect of surfactants on the solubility of LW6 was also determined using a 10% aqueous solution of various surfactants.
Each formulation equivalent to 1 mg of LW6 was dissolved in 1 mL of distilled water and stirred at 300 rpm for 48 h at room temperature. […] The drug concentration in each filtrate was measured by HPLC assay.
HPLC assay for LW6: The concentrations of LW6 from in vitro samples were determined using a HPLC system (Perkin Elmer series 200, Waltham, MA, USA) consisting of a UV detector, a pump, and an automatic injector. […]

[3] = In vitro drug release (dissolution) studies; type: physicochemical; settings: 37 °C, 100 rpm
Experimental: The drug release profiles of each formulation were examined at different pH conditions (1.2, 4.0, and 6.8). Each formulation (drug amount equivalent to 1 mg of LW6) was dispersed in different release media (10 mL) and stirred at 100 rpm, 37 °C. At predetermined time points (10, 20, 30, 45, and 60 min), the samples were collected and filtered through a 0.45-µm pore-sized cellulose syringe filters. The drug concentration in each filtrate was determined by HPLC assay.
HPLC assay for LW6: The concentrations of LW6 from in vitro samples were determined using a HPLC system (Perkin Elmer series 200, Waltham, MA, USA) consisting of a UV detector, a pump, and an automatic injector. A reversed-phase C18 column (Gemini C18, 4.6 × 150 mm, 5 µm; Phenomenex, Torrance, CA, USA) was eluted with a mobile phase consisting of acetonitrile and 0.1% formic acid (80:20, v/v). The flow rate was 1.0 mL/min at 30 °C, and the UV wavelength was set at 254 nm. Valsartan was used as an internal standard, and the calibration curve of LW6 was linear (r^2 = 0.99) within the concentration range of 0.05 to 100 µg/mL.

BCRP = molecular target: T1, BCRP (Rattus norvegicus, UniProt Q80W57); assay: Oral pharmacokinetics of topotecan (BCRP substrate) in rats with/without co-administered LW6 formulations; type: in vivo
T1 construct: from tissue; host or cells: living male Sprague-Dawley rats (intestine)
T1 sequence (Q80W57 1-657): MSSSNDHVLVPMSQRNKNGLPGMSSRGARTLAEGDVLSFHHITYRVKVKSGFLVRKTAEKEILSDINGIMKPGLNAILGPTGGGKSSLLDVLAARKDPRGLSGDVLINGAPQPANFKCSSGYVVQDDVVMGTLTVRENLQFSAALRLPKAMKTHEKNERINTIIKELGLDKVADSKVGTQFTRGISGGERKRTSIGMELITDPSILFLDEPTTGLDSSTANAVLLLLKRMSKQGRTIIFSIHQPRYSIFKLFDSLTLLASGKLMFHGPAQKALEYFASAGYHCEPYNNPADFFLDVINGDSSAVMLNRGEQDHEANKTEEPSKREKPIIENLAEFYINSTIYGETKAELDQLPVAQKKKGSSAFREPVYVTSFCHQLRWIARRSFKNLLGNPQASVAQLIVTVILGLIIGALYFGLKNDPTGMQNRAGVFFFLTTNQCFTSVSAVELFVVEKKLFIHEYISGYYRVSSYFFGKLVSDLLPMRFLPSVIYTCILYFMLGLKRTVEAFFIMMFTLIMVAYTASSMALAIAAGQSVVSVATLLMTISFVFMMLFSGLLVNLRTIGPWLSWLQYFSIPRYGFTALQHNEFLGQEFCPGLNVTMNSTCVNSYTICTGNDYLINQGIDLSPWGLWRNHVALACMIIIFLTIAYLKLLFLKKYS
Experimental: The pharmacokinetic profiles of topotecan, which is a representative BCRP substrate, were examined in rats with/without the co-administration of LW6 in different formulations. Animal studies were carried out in accordance with the “Guiding Principles in the Use of Animals in Toxicology” adopted by the Society of Toxicology (USA), and the study protocol was approved by the review committee of Dongguk University (IACUC-2017-016-2). Male Sprague–Dawley rats (260–280 g) were provided by Orient bio Co., Ltd. (Seongnam, Korea). All the rats were given free access to tap water and a normal standard chow diet (Superfeed Company, Wonju, Korea). The rats were fasted for 18 h before the experiments, and divided into three groups (n = 3 per group). The pure drug or SD (equivalent to 20 mg/kg of LW6) was suspended in 0.5% aqueous methylcellulose with 5% polyethylene glycol (PEG) and topotecan (10 mg/kg) was dissolved in saline. Each formulation was given orally to the three groups of rats (group 1, topotecan only; group 2, topotecan + pure LW6; group 3, topotecan + SD of LW6). Blood samples were obtained from the femoral artery at the predetermined time points. The blood samples were centrifuged at 13,000 rpm for 5 min, and the obtained plasma samples were frozen at −20 °C until analyzed by liquid chromatography-tandem mass spectrometry (LC-MS/MS).
LC-MS/MS assay for topotecan: The concentration of topotecan in rat plasma was determined using LC-MS/MS assay as reported by Ye et al.. Briefly, 100 µL of plasma, 20 µL of the internal standard camptothecin (1 µg/mL), and 180 µL of methanol were mixed vigorously, and then centrifuged at 13,000 rpm for 5 min. After centrifugation, 240 µL of the supernatant was collected and dried under vacuum. After complete drying, the residue was re-dispersed in methanol and analyzed by LC-MS/MS. Chromatographic separation was done with a C18 column (4.6 × 100 mm, 2.6 μm; Phenomenex, Torrance, CA, USA) using a mobile phase consisting of acetonitrile and 0.1% formic acid (80:20, v/v) at a flow rate of 0.4 mL/min. Mass spectrometric detection was done using the AB Sciex API 4000 triple quadrupole mass spectrometer (AB Sciex, Framingham, MA, USA). The electrospray ionization (ESI) source was set in positive ionization mode. The precursor/product ion pair (m/z) was 422.2/377.1 for topotecan and 349.1/305.2 for camptothecin (IS). The calibration curve was prepared at concentrations of 1 to 1000 ng/mL with a good linearity of r^2 value greater than 0.99.
Based on the noncompartmental analysis, the area under the plasma concentration–time curve (AUC) was calculated using the linear trapezoidal method. The peak plasma concentration (Cmax) and the time to reach the peak plasma concentration (Tmax) were values recorded from the experimental data.

[4] = male, Sprague-Dawley, rat, plasma, oral topotecan 10 mg/kg, with or without LW6 20 mg/kg (pure or F8-SD), mean ± SD (n = 3)

Aqueous solubility of pure LW6 (in words) [2]	Drug release within 20 min ([3]; acidic to neutral pH range (pH 1.2, 4.0, 6.8))	Drug release within 1 h ([3]; water)	Increase in oral (systemic) exposure of topotecan by coadministration (BCRP; oral topotecan 10 mg/kg + LW6 20 mg/kg equivalent, versus topotecan only)	AUC (BCRP; [4])	Cmax (BCRP; [4])	Tmax (BCRP; [4])	half-life (BCRP; male, Sprague-Dawley, rat, plasma, oral topotecan 10 mg/kg, with or without LW6 20 mg/kg (pure or F8-SD), mean ± SD (n = 3), read-out: T1/2 of topotecan (converted))	Structure (SMILES)	BCRP inhibitory potency compared with typical BCRP inhibitor [1]
practically insoluble	negligible	minimal	approximately threefold					COC(=O)c1ccc(O)c(NC(=O)COc2ccc(C34CC5CC(CC(C5)C3)C4)cc2)c1 [LW6, 3-[2-(4-adamantan-1-yl-phenoxy)-acetylamino]-4-hydroxy-benzoic acid methyl ester]	more potent than Kol43
				204 ± 11.1 ng·h/mL	31.3 ± 7.1 ng/mL	0.4 ± 0.1 h	2 ± 0.4 h	CC[C@@]1(O)C(=O)OCc2c1cc1n(c2=O)Cc2cc3c(CN(C)C)c(O)ccc3nc2-1 [Topotecan, topotecan]	
